What was measured:
[1] = cited from earlier work
[2] = Biodistribution in normal mice after intravenous injection (renal uptake); format: in vivo
Protocol: Tc-99m-MAGGG was administered simultaneously with I-131 OIH (as a reference standard) to six mice in two groups. Each mouse was injected intravenously with 0.1 milliliters of a preparation containing 0.5 microcuries of Tc-99m-MAGGG and 0.2 microcuries of I-131 OIH, and then placed into a metabolic cage capable of collecting excreted urine.
Ten minutes after injection, each mouse's urethra was ligated and the mouse was sacrificed by chloroform vapor; various samples were then taken to determine biodistribution of radiolabeled material. The results of these samples are shown in Table I. Similar measurements, shown in Table II, were taken on the second group of mice 120 minutes after injection.

[3] = Biodistribution in probenicid-treated mice (inhibited renal tubular transport); format: in vivo; settings: probenicid-treated mice (50 mg/kg), 10 minutes after injection
Protocol: In order to test the biodistribution of Tc-99m-MAGGG in mice having inhibited renal tubular transport, six mice were injected with a solution of probenicid at the rate of 50 milligrams of probenicid per kilogram of body weight. Ten minutes later, each mouse was injected with 0.1 milliliters of a solution containing 0.5 microcuries of Tc-99m-MAGGG and 0.2 microcuries of I-131 OIH. After an additional ten minutes, each mouse was sacrificed and various samples taken to determine biodistribution of radiolabeled material.

[4] = Renal excretion in humans (normal volunteers); format: in vivo
Protocol: The renal excretion of Tc-99m-MAGGG in humans was obtained based upon experiments on normal volunteers. For purposes of comparison, tests were also conducted using I-131 OIH either immediately before or after the study using Tc-99m-MAGGG.
In Example 6, the Tc-99m-MAGGG used was prepared with stannous reduction similar to the procedure set forth in Example 2, with glucoheptonate being used as an intermediate exchange ligand. In Example 7, dithionite was used as a reducing agent instead of using stannous reduction. Both examples provided Tc-99m-MAGGG having the same major peak on a HPLC column.
In both examples, the subject was injected with a dosage containing about 15 millicuries of Tc-99m-MAGGG. The comparative tests utilizing I-131 OIH involved administration of about 300 microcuries of I-131 OIH. In both instances, imaging of the kidneys ureters, and blood pool was conducted for a period of about 30 minutes, following which the count rate in the bladder was measured.
Thereafter, the bladder was voided, and an additional image was taken to detect the presence of residual radioactivity in order to allow determination of the percent of urine radioactivity at 30 minutes. Measurements were also taken at 3 hours.

Row | level in the urine relative to corresponding level of I-131 OIH ([2]; 10 minutes) [%] | Blood ([2]; 10 minutes after injection) | Intestine ([2]; 10 minutes after injection) | Kidneys ([2]; 10 minutes after injection) | Liver ([2]; 10 minutes after injection) | Stomach ([2]; 10 minutes after injection) | Urine ([2]; 10 minutes after injection) | level in the urine relative to corresponding level of I-131 OIH ([2]; 120 minutes) [%] | Blood ([2]; 120 minutes after injection) | Intestine ([2]; 120 minutes after injection) | Kidneys ([2]; 120 minutes after injection) | Liver ([2]; 120 minutes after injection) | Stomach ([2]; 120 minutes after injection) | Urine ([2]; 120 minutes after injection) | Compound | further results
1 | 106.4 | 2.6 percentage of radioactive agen | 1.6 percentage of radioactive agen | 5.2 percentage of radioactive agen | 2.6 percentage of radioactive agen | .2 percentage of radioactive agen | 75.1 percentage of radioactive agen | 102.2 | .2 percentage of radioactive agen | 2.2 percentage of radioactive agen | .3 percentage of radioactive agen | .1 percentage of radioactive agen | .2 percentage of radioactive agen | 96.0 percentage of radioactive agen | Tc-99m-mercapoacetylglycylglycylalanine [Tc-99m-MAGG-Alanine] | –
2 | 107.3 | 2.6 percentage of radioactive agen | 1.1 percentage of radioactive agen | 3.5 percentage of radioactive agen | 2.9 percentage of radioactive agen | 0.1 percentage of radioactive agen | 79.9 percentage of radioactive agen | 102.6 | 0.03 percentage of radioactive agen | 1.2 percentage of radioactive agen | 0.06 percentage of radioactive agen | 0.08 percentage of radioactive agen | 0.02 percentage of radioactive agen | 98.5 percentage of radioactive agen | Tc-99m-mercaptoacetylglycylglycylglycine [Tc-99m-MAGGG] | Blood [3]: 6.0 percentage of radioactive agen; Intestine [3]: 1.6 percentage of radioactive agen; Kidneys [3]: 5.4 percentage of radioactive agen; Liver [3]: 5.9 percentage of radioactive agen; Stomach [3]: 0.24 percentage of radioactive agen; Urine [3]: 64.7 percentage of radioactive agen; urine radioactivity (renal excretion) ([4]; 30 minutes): 71.8 ± 4.2 percentage of radioactive agen; urine radioactivity (renal excretion) ([4]; 3 hours): 98.6 ± 1.6 percentage of radioactive agen
3 | 86.7 | 2.7 percentage of radioactive agen | 10.3 percentage of radioactive agen | 3.3 percentage of radioactive agen | 9.9 percentage of radioactive agen | .2 percentage of radioactive agen | 58.4 percentage of radioactive agen | 87.6 | .04 percentage of radioactive agen | 16.0 percentage of radioactive agen | .2 percentage of radioactive agen | 1.1 percentage of radioactive agen | .05 percentage of radioactive agen | 82.5 percentage of radioactive agen | Tc-99m-mercaptoacetylglycylglycylglycylglycine [Tc-99m-MAGGGG] | –
4 | – | 4.1 percentage of radioactive agen | 1.0 percentage of radioactive agen | 2.2 percentage of radioactive agen | 1.8 percentage of radioactive agen | 0.5 percentage of radioactive agen | 74.4 percentage of radioactive agen | – | 0.14 percentage of radioactive agen | 0.16 percentage of radioactive agen | 0.06 percentage of radioactive agen | 0.11 percentage of radioactive agen | 0.98 percentage of radioactive agen | 96.0 percentage of radioactive agen | O=C(O)CNC(=O)c1ccccc1[131I] [I-131 OIH, I-131 ortho-iodohippurate, reference compound] | Blood [3]: 7.0 percentage of radioactive agen; Intestine [3]: 2.0 percentage of radioactive agen; Kidneys [3]: 3.6 percentage of radioactive agen; Liver [3]: 3.7 percentage of radioactive agen; Stomach [3]: 0.75 percentage of radioactive agen; Urine [3]: 59.2 percentage of radioactive agen; urine radioactivity (renal excretion) ([4]; 30 minutes): 65.5 ± 6.3 percentage of radioactive agen; urine radioactivity (renal excretion) ([4]; 3 hours): 93.5 ± 3.2 percentage of radioactive agen; renal extraction efficiency ([1]; in vivo): 65%-80

The next lines start with the compound.

Row | Compound | level in the urine relative to corresponding level of I-131 OIH ([2]; 10 minutes) [%] | Blood ([2]; 10 minutes after injection) | Intestine ([2]; 10 minutes after injection) | Kidneys ([2]; 10 minutes after injection) | Liver ([2]; 10 minutes after injection) | Stomach ([2]; 10 minutes after injection) | Urine ([2]; 10 minutes after injection) | level in the urine relative to corresponding level of I-131 OIH ([2]; 120 minutes) [%] | Blood ([2]; 120 minutes after injection) | Intestine ([2]; 120 minutes after injection) | Kidneys ([2]; 120 minutes after injection) | Liver ([2]; 120 minutes after injection) | Stomach ([2]; 120 minutes after injection) | Urine ([2]; 120 minutes after injection) | further results
5 | Nc1ccc(C(=O)NCC(=O)O)cc1 [PAH, para-aminohippuric acid] | – | – | – | – | – | – | – | – | – | – | – | – | – | – | fraction in the blood removed by the kidneys ([1]; in vivo): ~90%; fraction removed from the plasma by active secretion into the tubules ([1]; in vivo): ~70%
6 | Tc-99m diethylenetriaminepentaacetic acid [Tc-99m-DTPA] | – | – | – | – | – | – | – | – | – | – | – | – | – | – | maximum extraction efficiency ([1]; glomerular filtration only): 20-25%
7 | Tc-99m-N,N'-bis(mercaptoacetyl)-2,3-diaminopropanoate [Tc-99m-CO2 -DADS-B] | – | – | – | – | – | – | – | – | – | – | – | – | – | – | removal by the kidneys compared with Tc-99m-CO2-DADS-A isomer ([1]; in vivo): far less efficiently removed by the kidneys
8 | Tc-99m-N,N'-bis(mercaptoacetyl)-2,3-diaminopropanoate [Tc-99m-CO2 -DADS-A] | – | – | – | – | – | – | – | – | – | – | – | – | – | – | excreted less effectively than I-131 OIH ([1]; in vivo): ~20%
